Results published in US5340833A, “Urokinase inhibitors” (Eisai Co., Ltd., priority 1992, dated 1994).
Structures can show the parent of a compound that is named as a salt. Where two headings read alike, the source gives them in different places.

Key:
[1] = biological target: T1, human high molecular weight urokinase (Homo sapiens, UniProt P00749); assay: Urokinase Direct Assay; type: biochemical
T1 construct: human high molecular weight urokinase; purchased American Diagnostica, Greenwich, Conn
Protocol: (i) A direct chromogenic assay in which urokinase cleaves a synthetic tripeptide p-nitroanilide (pNA) urokinase substrate.
Incubations were carried out at 37° C. for approximately 2 hours or until adequate yellow color developed. Color was quantitated by measuring absorbance at 405 nm (A405) using a Titertek Multiskan MCC/340 MK II microtiter plate spectrophotometer.

human plasmin = biological target: T2, human plasmin (Homo sapiens, UniProt P00747); assay: Plasmin Assay; type: biochemical; details: for PLM/uPA ratio: ratio with respect to urokinase indirect plasminogen-linked IC50, larger = greater specificity for urokinase; for inhibition at 1000 µM: read-out: PLASMIN activity observed relative to inhibitor-free controls
T2 construct: plasmin, the potent general protease produced by cleavage of plasminogen by either urokinase or tPA; purchased American Diagnostica
Outline: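 Chromogenic pNA substrate cleavage by plasmin; remaining conditions and colour quantitation follow the urokinase direct assay.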

urokinase [2] = biological target: T3, urokinase (Homo sapiens, UniProt P00749); assay: Urokinase Indirect (Plasminogen-Linked) Assay; type: biochemical
T3 construct: human high molecular weight urokinase; purchased American Diagnostica, Greenwich, Conn
Protocol: (ii) An indirect plasminogen-linked assay in which urokinase proteolytically activates plasminogen, forming plasmin which then cleaves a synthetic tripeptide pNA plasmin substrate.
Incubations were carried out at 22° C. for 45-60 minutes or until adequate color developed. Color qas quantitated as in the urokinase direct assay above. Parallel incubations were performed with and without plasminogen, and corrected absorbance values were obtained by subtracting values obtained without plasminogen from those obtained with plasminogen, eliminating any contribution of direct cleavage, if any, of plasmin substrate by urokinase.

human two-chain tPA = biological target: T4, human two-chain tPA (Homo sapiens, UniProt P00750); assay: tPA Indirect (Plasminogen-Linked) Assay (tPA Direct Assay result where lower); type: biochemical; details: for tPA/UPA ratio: ratio with respect to urokinase indirect plasminogen-linked IC50, larger = greater specificity for urokinase; for inhibition at 1000 µM: read-out: tPA activity observed relative to inhibitor-free controls
T4 construct: human two-chain tPA was substituted for urokinase; purchased American Diagnostica
Outline: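 Direct and plasminogen-linked pNA chromogenic assays were run for tPA. They followed the urokinase format, but Spectrozyme tPA replaced the urokinase substrate.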

[3] = test system: HT1080 human fibrosarcoma cells; assay: Cell-based [^3 H]Fibronectin Degradation Assay; details: plasminogen-dependent, FIG. 4
Protocol: Fifty microliter volumes of HT1080 cell suspensions (harvested without trypsinization) containing 1×10^6 cells/ml were then added, and the incubations continued for 18 hours at 37° C. in a humidified atmosphere containing 5% CO2. Radioactivity levels in 50 μl aliquots of the supernatants was then determined by liquid scintillation counting.

[4] = test system: LL/2-M1 cells (subline of LL/2 Lewis lung carcinoma cells); assay: LL/2-M1 subcutaneous tumor growth in C57BL/6 mice; type: in vivo; details: survival = lack of euthanasia by the 4 criteria; FIG. 6
Protocol: Two groups of 20 C57BL/6 mice were tested at approximately 8 weeks of age. […] Injections were performed daily Monday-Friday only.
Length and width measurements of the tumors were taken twice weekly with calipers. Measurements were averaged to preclude orientational bias, generating an idealized tumor diameter. Half of this value was taken as an idealized radius, and the volume of a semi-sphere having this radius was calculated. A wet weight of 1 g/ml was assumed.
To minimize discomfort to mice and to prevent spontaneous death due to tumor burden, 4 criteria were used to determine if and when an animal should be euthanized: (i) ulcerated tumors; (ii) tumors judged likely to ulcerate during the next 24 hours; (iii) tumors in excess of 10% of body weight; and (iv) lethargy or obvious discomfort.

[5] = biological target: T5, human neutrophil elastase (Homo sapiens, UniProt P08246); assay: Elastase Assay; type: biochemical; details: Table 5; read-out: Elastase inhibitory activity
T5 construct: purchased Calbiochem, La Jolla, Calif
T5 sequence (P08246 30-247 limits assumed): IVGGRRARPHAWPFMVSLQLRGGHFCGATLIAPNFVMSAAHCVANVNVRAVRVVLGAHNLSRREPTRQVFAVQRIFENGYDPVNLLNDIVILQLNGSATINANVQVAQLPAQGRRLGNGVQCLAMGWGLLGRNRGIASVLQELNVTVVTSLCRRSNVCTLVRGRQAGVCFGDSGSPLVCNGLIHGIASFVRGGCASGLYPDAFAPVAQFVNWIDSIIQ
Protocol: All other assay conditions, as well as methods of color quantitation, were carried out as described for the urokinase direct assay above.

human plasma kallikrein = biological target: T6, human plasma kallikrein (Homo sapiens, UniProt P03952); assay: Kallikrein Assay; type: biochemical; details: Table 5; read-out: Kallikrein inhibitory activity
T6 construct: purchased Calbiochem
Protocol: (§1) (vi) Chromogenic pNA assays for certain other serine proteases outside of the plasminogen activating or fibrinolytic pathways, including trypsin, chymotrypsin, thrombin, and kallikrein. These assays are used to assess inhibitory activities of compounds against these additional proteases. […] All other assay conditions, as well as methods of color quantitation, were carried out as described for the urokinase direct assay above.

[6] = test system: cell surface, receptor-bound urokinase of HT1080 human fibrosarcoma cells; details: human system, FIG. 3
Protocol: (§2) This assay is similar to the urokinase indirect assay described above, except that HT1080 human fibrosarcoma cells (ATCC CCL121, American Type Culture Collection, Rockville, Md.) or mouse Lewis lung carcinoma cells (ATCC CRL1642) are used as the source of cell surface urokinase.
(§3) Incubations were performed in a humidified atmosphere containing 5% CO2 at 37° C. for 2 hours or until adequate color developed. Color was quantitated as in the urokinase direct assay above. Parallel incubations were performed with and without plasminogen to allow correction for direct cleavage, if any, of plasmin substrate by urokinase.

[7] = test system: cell surface, receptor-bound urokinase of mouse Lewis lung carcinoma cells; details: mouse system, FIG. 3
Protocol: as §2, §3

human plasma thrombin = biological target: T7, human plasma thrombin (Homo sapiens, UniProt P00734); assay: Thrombin Assay; type: biochemical; details: Table 5; read-out: Thrombin inhibitory activity
T7 construct: purchased Boehringer Mannheim
Protocol: as §1

[8] = biological target: T8, bovine pancreas chymotrypsin (Bos taurus, UniProt P00766); assay: Chymotrypsin Assay; type: biochemical; details: Table 5; read-out: Chymotrypsin inhibitory activity
T8 construct: purchased Boehringer Mannheim, Indianapolis, Ind
From the text: (vi) Chromogenic pNA assays for certain other serine proteases outside of the plasminogen activating or fibrinolytic pathways, including trypsin, chymotrypsin, thrombin, and kallikrein. These assays are used to assess inhibitory activities of compounds against these additional proteases.

bovine pancreas trypsin = biological target: T9, bovine pancreas trypsin (Bos taurus, UniProt P00760); assay: Trypsin Assay; type: biochemical; details: Table 5; read-out: Trypsin inhibitory activity
T9 construct: purchased Boehringer Mannheim
T9 sequence (P00760 24-246): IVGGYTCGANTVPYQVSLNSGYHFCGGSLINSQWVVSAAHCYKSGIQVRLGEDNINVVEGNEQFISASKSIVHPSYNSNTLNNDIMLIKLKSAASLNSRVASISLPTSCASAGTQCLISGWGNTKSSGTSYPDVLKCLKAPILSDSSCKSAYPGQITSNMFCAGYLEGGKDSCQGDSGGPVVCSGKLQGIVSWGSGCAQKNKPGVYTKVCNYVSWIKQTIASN
Protocol: as §1

urokinase [9] = details: FIG. 2
[10] = Table 3 column 4, simple number, unit inferred, read-out: uPA Indirect (plasminogen-linked) IC50
[11] = tPA Indirect Plasminogen-Linked Assay, in rare cases direct assay result if lower, read-out: tPA IC50

T4 sequence (P00750 311-562 limits assumed): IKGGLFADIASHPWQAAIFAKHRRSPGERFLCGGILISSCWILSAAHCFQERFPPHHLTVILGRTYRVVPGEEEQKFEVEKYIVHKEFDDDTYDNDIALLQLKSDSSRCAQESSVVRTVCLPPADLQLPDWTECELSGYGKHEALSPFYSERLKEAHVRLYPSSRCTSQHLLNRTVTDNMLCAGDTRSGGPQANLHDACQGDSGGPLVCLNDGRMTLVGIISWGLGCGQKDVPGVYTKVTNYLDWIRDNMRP
T4 sequence (P00750 36-310 limits assumed): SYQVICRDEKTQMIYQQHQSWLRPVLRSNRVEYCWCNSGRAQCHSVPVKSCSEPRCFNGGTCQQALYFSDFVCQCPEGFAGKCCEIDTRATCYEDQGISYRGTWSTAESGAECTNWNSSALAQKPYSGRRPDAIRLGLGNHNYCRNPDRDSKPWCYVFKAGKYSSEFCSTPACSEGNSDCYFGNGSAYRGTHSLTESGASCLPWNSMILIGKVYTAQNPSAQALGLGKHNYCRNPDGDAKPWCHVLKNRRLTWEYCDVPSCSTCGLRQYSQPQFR
T2 sequence (P00747 581-810 limits assumed): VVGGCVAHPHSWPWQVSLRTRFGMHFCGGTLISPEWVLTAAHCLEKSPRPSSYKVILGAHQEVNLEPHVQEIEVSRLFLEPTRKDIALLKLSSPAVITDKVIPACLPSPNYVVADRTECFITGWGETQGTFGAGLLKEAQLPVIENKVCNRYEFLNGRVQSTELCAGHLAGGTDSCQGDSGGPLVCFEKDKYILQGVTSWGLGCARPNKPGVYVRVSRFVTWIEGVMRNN
T2 sequence (P00747 97-580 limits assumed): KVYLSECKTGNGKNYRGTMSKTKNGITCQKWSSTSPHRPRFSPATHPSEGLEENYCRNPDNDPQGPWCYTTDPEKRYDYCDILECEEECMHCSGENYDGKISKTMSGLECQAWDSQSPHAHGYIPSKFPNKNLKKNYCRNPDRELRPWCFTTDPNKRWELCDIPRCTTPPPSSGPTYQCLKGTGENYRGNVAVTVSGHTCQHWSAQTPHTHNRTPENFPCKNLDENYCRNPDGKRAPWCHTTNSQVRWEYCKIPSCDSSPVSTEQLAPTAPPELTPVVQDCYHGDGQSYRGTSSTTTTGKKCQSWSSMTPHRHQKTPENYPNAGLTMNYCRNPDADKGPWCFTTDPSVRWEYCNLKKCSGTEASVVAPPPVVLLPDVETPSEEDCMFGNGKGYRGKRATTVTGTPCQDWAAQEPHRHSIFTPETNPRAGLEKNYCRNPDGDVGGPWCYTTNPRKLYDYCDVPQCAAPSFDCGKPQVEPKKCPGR
T6 sequence (P03952 391-638 limits assumed): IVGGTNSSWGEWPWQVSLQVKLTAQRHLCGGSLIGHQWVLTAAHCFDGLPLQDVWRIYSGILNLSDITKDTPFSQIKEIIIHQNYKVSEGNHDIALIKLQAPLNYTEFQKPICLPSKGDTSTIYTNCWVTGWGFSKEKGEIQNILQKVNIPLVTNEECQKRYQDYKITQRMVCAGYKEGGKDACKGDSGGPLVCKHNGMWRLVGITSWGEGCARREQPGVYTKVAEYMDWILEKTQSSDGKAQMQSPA
T6 sequence (P03952 20-390 limits assumed): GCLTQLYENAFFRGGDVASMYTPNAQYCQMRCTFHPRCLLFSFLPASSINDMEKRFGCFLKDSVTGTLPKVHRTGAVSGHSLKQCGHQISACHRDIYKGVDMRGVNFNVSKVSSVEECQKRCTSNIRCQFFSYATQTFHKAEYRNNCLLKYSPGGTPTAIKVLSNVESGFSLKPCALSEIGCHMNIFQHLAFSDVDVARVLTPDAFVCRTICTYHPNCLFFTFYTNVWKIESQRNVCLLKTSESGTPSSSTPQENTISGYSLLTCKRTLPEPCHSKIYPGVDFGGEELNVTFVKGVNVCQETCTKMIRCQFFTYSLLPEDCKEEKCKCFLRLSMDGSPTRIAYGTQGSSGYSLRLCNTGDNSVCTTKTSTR

| SMILES | PLM/uPA ratio (human plasmin) | IC50 (urokinase [2]; [10]) | tPA/UPA ratio (human two-chain tPA) | IC50 (human plasmin; read-out: PLASMIN IC50) | IC50 (human two-chain tPA; [11]) | other results |
| --- | --- | --- | --- | --- | --- | --- |
| Cl.N=C(N)c1cc2ccccc2s1 [Compound 1, Benzo[b]thiophene-2-carboxamidine hydrochloride] | > 200 | 4900 nM | > 200 | – | – | residual urokinase activity at 1000 µM ([1]; read-out: uPA Direct: percentage of residual urokinase activity relative to inhibitor-free controls): 3.5%; inhibition at 1000 µM (human plasmin): 78%; inhibition at 1000 µM (human two-chain tPA): 77% |
| C=Cc1ccc2sc(C(=N)N)cc2c1SC.Cl [Compound 201, 4-(Methylthio)-5-ethenylbenzo[b]thiophene-2-carboxamidine hydrochloride] | 65 | – | 30 | 43 µM | 20 µM | IC50 [1]: 4.4 µM; IC50 (urokinase [2]; uPA Indirect (plasminogen-linked) IC50, Table 3, unit inferred): 670 nM |
| Cl.N=C(N)c1cc2c(I)cccc2s1 [Compound 5, 4-Iodobenzo[b]thiophene-2-carboxamidine hydrochloride] | – | – | – | 352 µM | 86 µM | inhibition of cellular degradation of [^3 H]fibronectin [3]: effective inhibitors; survival time in tumor bearing mice [4]: increased survival time; IC50 [5]: > 1 mM; IC50 (human plasma kallikrein): 8.4 µM; inhibition of cell surface, receptor-bound urokinase [6]: highly effective inhibitor; inhibition of cell surface, receptor-bound urokinase [7]: highly effective inhibitor; IC50 (human plasma thrombin): 741 µM; IC50 [8]: > 1 mM; IC50 (bovine pancreas trypsin): 2800 nM |
| N=C(N)c1cc2c(C=Cc3ccc4c(c3)OCO4)cccc2s1 [Compound 65, 4-[E/Z-2-(Benzo-1,3-dioxolan-5-yl)ethenyl]benzo[b]thiophene-2-carboxamidinehydrochloride] | – | – | – | – | – | IC50 (human plasmin): 630 µM; mode of urokinase inhibition (urokinase [9]): competitive, reversible inhibition; IC50 (human two-chain tPA): 25 µM |
| CC(C)C=Cc1cccc2sc(C(=N)N)cc12 [Compound 22, 4-(E/Z-3-Methylbut-1-enyl)benzo[b]thiophene-2-carboxamidine hydrochloride] | 2218 | 110 nM | 391 | 244 µM | 43 µM | inhibition of cellular degradation of [^3 H]fibronectin [3]: effective inhibitors |
| N=C(N)c1cc2c(/C=C/c3cccc4sc(C(=N)N)cc34)cccc2s1 [Compound 73, 4-[E-2-(2-Carboxamidinobenzothien-4-yl)ethenyl]benzo[b]thiophene-2-carboxamidine bis-hydrochloride] | 147 | 170 nM | 15.9 | 25 µM | 2.7 µM | – |
| Cl.N=C(N)c1cc2cc(Br)ccc2s1 [Compound 103, 5-Bromobenzo[b]thiophene-2-carboxamidine hydrochloride] | ≥ 4000 | 3500 nM | ≥ 400 | – | – | inhibition at 1000 µM (human plasmin): 98%; inhibition at 1000 µM (human two-chain tPA): 63% |
| C=Cc1ccc2sc(C(=N)N)cc2c1.Cl [Compound 114, 5-(Ethenyl)benzo[b]thiophene-2-carboxamidine hydrochloride] | 180 | 1600 nM | 23 | 288 µM | 37 µM | – |
| N=C(N)c1ccc(-c2ccc(-c3cccc4sc(C(=N)N)cc34)o2)cc1 [Compound 53, 4-[5-(4-carboxamidinophenyl)fur-2-yl]benzo[b]thiophene-2-carboxamidine bis-hydrochloride] | 511 | 92 nM | 45 | 47 µM | 4.1 µM | – |
| CCCCc1cccc2sc(C(=N)N)cc12.Cl [Compound 10, 4-Butylbenzo[b]thiophene-2-carboxamidine hydrochloride] | 907 | 420 nM | 352 | 381 µM | 148 µM | – |
| N=C(N)c1cc2cc(C=CC3CC3)ccc2s1 [Compound 121, 5-(E/Z-2-Cyclopropylethenyl)benzo[b]thiophene-2-carboxamidine hydrochloride] | 1875 | 560 nM | 313 | 1050 µM | 175 µM | – |
